From publication PMC11432795, “Mutagenesis of the Peptide Inhibitor of ASIC3 Channel Introduces Binding to Thumb Domain of ASIC1a but Reduces Analgesic Activity” (Marine Drugs, 2024) come the findings set out here.

One assay concerns the target T1, rat ASIC3 channel (Rattus norvegicus, UniProt O35240).
T1 construct: expressed in transfected cells; host or cells: Xenopus laevis oocytes injected with mRNA made from pcDNA3.1-rat ASIC3
T1 sequence (O35240 1-533): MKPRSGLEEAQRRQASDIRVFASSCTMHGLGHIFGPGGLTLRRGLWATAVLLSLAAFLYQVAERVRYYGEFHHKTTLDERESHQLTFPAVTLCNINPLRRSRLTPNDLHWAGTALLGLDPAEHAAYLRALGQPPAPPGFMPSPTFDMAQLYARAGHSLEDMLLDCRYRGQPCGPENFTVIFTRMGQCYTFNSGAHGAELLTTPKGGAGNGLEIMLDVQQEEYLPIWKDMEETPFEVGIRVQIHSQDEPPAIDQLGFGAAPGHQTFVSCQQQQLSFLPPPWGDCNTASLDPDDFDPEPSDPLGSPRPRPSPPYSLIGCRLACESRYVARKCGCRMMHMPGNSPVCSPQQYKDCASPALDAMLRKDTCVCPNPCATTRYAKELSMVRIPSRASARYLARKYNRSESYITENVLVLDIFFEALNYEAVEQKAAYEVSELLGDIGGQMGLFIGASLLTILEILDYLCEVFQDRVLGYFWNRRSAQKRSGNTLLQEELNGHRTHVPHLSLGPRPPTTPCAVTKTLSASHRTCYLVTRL
As to the kind of experiment: Two-electrode voltage clamp, rat ASIC3 in X. laevis oocytes. In kind it is cell-based. The conditions noted are these: pH 5.5 stimulus, mean ± S.E.M., 5 cells; for nH: inhibition of rat ASIC3, conditioning pH 7.4; for IC50: rat ASIC3, X. laevis oocytes, TEVC, Vh −50 mV, conditioning pH 7.4, peptide 30 s before stimulus. Here is the method:
(§1) Figure 3 The effect of mutant peptides S16K and A23K on rat ASIC1a and ASIC3 channels. […] (B) Dose–response curves for the inhibitory effect of mutant peptides on ASIC1a. Each data point represents data from 5 cells. (C) Representative current traces of Ugr9-1, S16K, and A23K at a concentration of 12.5 µM on ASIC3. […] Each point represents data from 5 cells. The depicted currents were induced by a pH 5.5 stimulus following a conditioning pH of 7.4, with peptides applied for 30 s before the pH stimulus. The holding potential (Vh) was −50 mV, and the time interval between applications ranged from 1 to 2 min. Data are presented as mean ± S.E.M.
(§2) A small portion of the ovary was isolated from frogs under anesthesia induced by a 0.17% solution of procaine methanesulphonate (MS222) (Sigma), followed by treatment with collagenase (1 mg/mL) at room temperature for 2 h. Oocytes at stages IV and V, devoid of follicular membranes, were transferred to ND-96 medium (containing 96 mM NaCl, 5 mM HEPES, 2 mM KCl, 1.8 mM CaCl2, 1 mM MgCl2, pH 7.4). mRNA synthesis was performed from pcDNA3.1 vectors (Invitrogen, Carlsbad, CA, USA) containing the rat ASIC3 gene, as well as pCI vectors containing genes for rat ASIC1a, its mutant analogues, and ASIC1b. mRNA (2.5–10 ng) was then injected into the oocytes. For the ASIC1a/3 heteromeric channels, the mRNA encoding the ASIC1a and ASIC3 subunits were injected in a 1:5 ratio, respectively. Subsequently, the oocytes were incubated for 2–3 days at a temperature of 17–19 °C in ND96 medium supplemented with gentamicin and streptomycin (20 µg/mL each).
(§3) Whole-cell electrophysiological recordings of ASIC channels were conducted using a two-electrode voltage-clamp setup. Microelectrodes were filled with 3 M KCl. Recordings from oocytes were carried out at a holding potential of −50 mV, with data filtered at 10 Hz and sampled at a rate of 100 Hz using an L780M ADC (LCard, Moscow, Russia). The synchronized delivery of solutions into the chamber and recording of electrophysiological results were carried out using in-house software v.2. Activation of ASIC channels occurred through rapid pH changes in the solution, achieved by replacing the working solution in the chamber with ND96-based solutions at varying pH levels. Specifically, HEPES was substituted with 10 mM MES for pH 5.5–6.5 and MOPS for pH 6.7–7.0.
(§4) Fresh peptide solutions were meticulously prepared in ND96 buffer with a pH of 7.43 immediately before experiments, with strict control over the pH levels. Peptides were applied for 30 s at a conditioning pH of 7.43 before acid stimulation of the channel. The interval between applications was maintained at a minimum of 1.5 to 2 min.
(§5) Electrophysiological data analysis was conducted using OriginPro 2018 software (OriginLab, Northampton, MA, USA). Dose–response relationships for Ugr9a-1, S16K, and A23K peptides were fitted using a Hill function: F1(x) = A − A/(1 + (x/IC50)^nH), where F1(x) represents the amplitude of the current at concentration x of the peptide, A is the maximum amplitude of the current, IC50 is the half-maximum inhibitory concentration of the peptide, and nH is the Hill coefficient.
In general terms: Two-electrode voltage clamp is typically applied to oocytes expressing channels or transporters.

Another assay addresses T2, rat ASIC1a channel (Rattus norvegicus, UniProt P55926).
T2 construct: expressed in transfected cells; host or cells: Xenopus laevis oocytes injected with mRNA made from a pCI-rASIC1a plasmid
T2 sequence (P55926 1-526): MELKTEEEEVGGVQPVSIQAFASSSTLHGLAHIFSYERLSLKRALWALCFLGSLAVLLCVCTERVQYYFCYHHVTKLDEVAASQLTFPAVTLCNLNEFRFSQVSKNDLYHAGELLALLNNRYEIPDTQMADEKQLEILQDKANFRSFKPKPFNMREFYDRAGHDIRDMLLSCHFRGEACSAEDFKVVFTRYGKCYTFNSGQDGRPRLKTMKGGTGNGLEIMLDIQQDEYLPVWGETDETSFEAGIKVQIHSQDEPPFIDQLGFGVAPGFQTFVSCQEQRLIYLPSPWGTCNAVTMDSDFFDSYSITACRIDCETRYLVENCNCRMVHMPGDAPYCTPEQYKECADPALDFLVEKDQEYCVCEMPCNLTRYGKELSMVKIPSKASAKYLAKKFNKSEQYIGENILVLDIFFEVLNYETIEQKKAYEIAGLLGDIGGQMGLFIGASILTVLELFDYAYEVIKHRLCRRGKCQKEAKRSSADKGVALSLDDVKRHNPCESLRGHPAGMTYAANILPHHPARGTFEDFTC
Kind of assay: Two-electrode voltage clamp, rat ASIC1a in X. laevis oocytes. In kind it is cell-based. How it is done: as §1, §2, §3, §4, §5

Positions of bridges follow the written chain, without caps; N, C: chain ends. Residues, ends and D or L forms follow the SMILES beside them.

The molecule `CC[C@H](C)[C@H](N)C(=O)N[C@@H](CO)C(=O)N[C@H](C(=O)N[C@@H](CC(=O)O)C(=O)N1CCC[C@H]1C(=O)N1CCC[C@H]1C(=O)N[C@H]1CSSC[C@@H]2NC(=O)[C@H](CC(N)=O)NC(=O)CNC(=O)[C@H](CO)NC(=O)CNC(=O)[C@H](CC(=O)O)NC(=O)[C@H](CCCNC(=N)N)NC(=O)[C@H](Cc3c[nH]cn3)NC(=O)[C@H](Cc3ccc(O)cc3)NC(=O)[C@H](CSSC[C@@H](C(=O)NCC(=O)N[C@@H](C)C(=O)N[C@H](C(=O)O)C(C)C)NC(=O)CNC(=O)[C@H](Cc3ccc(O)cc3)NC(=O)[C@H](CCCCN)NC(=O)[C@H](CC(=O)O)NC(=O)[C@H](Cc3ccc(O)cc3)NC(=O)[C@H](C(C)C)NC2=O)NC(=O)[C@H](Cc2ccccc2)NC(=O)[C@H](CCCNC(=N)N)NC1=O)[C@@H](C)CC` [A23K] (H-ISIDPPCRFCYHRDGSGNCVYDKYGCGAV-OH; disulfide 7-19, 10-26) returned a nH on rat ASIC3 channel of 3.58 ± 0.08. Also, the IC50 against rat ASIC3 channel came out at 9.39 µM; at rat ASIC1a channel (rat ASIC1a, X. laevis oocytes, TEVC, Vh −50 mV, pH 5.5 stimulus, conditioning pH 7.4, peptide 30 s before stimulus, mean ± S.E.M., 5 cells, read-out: half-maximal inhibitory concentration (IC50)), 6.72 µM. The inhibition at 10 µM at rat ASIC1a channel (10 µM, pH 5.5 stimulus, conditioning pH 7.4, peptide 30 s, mean ± SEM, n = 5, read-out: inhibitory effect on wild-type ASIC1a) was found to be 74.9 ± 6.5%. At rat ASIC1a channel (A23K versus S16K), the “activity on ASIC1a compared to S16K” value is “over three times more active than S16K”. Besides, on rat ASIC1a channel (inhibition of rat ASIC1a, pH 5.5 stimulus, conditioning pH 7.4, mean ± S.E.M., 5 cells), the “Hill slope (nH)” value turned out to be 2.84 ± 0.31.

At rat ASIC3 channel, `CC[C@H](C)[C@H](N)C(=O)N[C@@H](CO)C(=O)N[C@H](C(=O)N[C@@H](CC(=O)O)C(=O)N1CCC[C@H]1C(=O)N1CCC[C@H]1C(=O)N[C@H]1CSSC[C@@H]2NC(=O)[C@H](CC(N)=O)NC(=O)CNC(=O)[C@H](CO)NC(=O)CNC(=O)[C@H](CC(=O)O)NC(=O)[C@H](CCCNC(=N)N)NC(=O)[C@H](Cc3c[nH]cn3)NC(=O)[C@H](Cc3ccc(O)cc3)NC(=O)[C@H](CSSC[C@@H](C(=O)NCC(=O)N[C@@H](C)C(=O)N[C@H](C(=O)O)C(C)C)NC(=O)CNC(=O)[C@H](Cc3ccc(O)cc3)NC(=O)[C@H](C)NC(=O)[C@H](CC(=O)O)NC(=O)[C@H](Cc3ccc(O)cc3)NC(=O)[C@H](C(C)C)NC2=O)NC(=O)[C@H](Cc2ccccc2)NC(=O)[C@H](CCCNC(=N)N)NC1=O)[C@@H](C)CC` [Ugr9-1] (H-ISIDPPCRFCYHRDGSGNCVYDAYGCGAV-OH; disulfide 7-19, 10-26) showed a nH of 2.33 ± 0.17 and an IC50 of 14.2 ± 0.96 µM. For the same molecule, the “effect on ASIC1a at 50 µM” value on rat ASIC1a channel (50 µM, representative current traces, pH 5.5 stimulus, conditioning pH 7.4) was “lack of effect”. Further, the “activity towards rASIC1a” value on rat ASIC1a channel (pH 5.5 stimulus, conditioning pH 7.4) was “no activity”.
